# US20250326713A1, “INHIBITORS OF MsbA AS ANTIBIOTICS, PHARMACEUTICAL COMPOSITIONS, AND USES THEREOF” (priority 2022, published 2025)
# Test system: various strains of bacteria
# Experiment: Antimicrobial potency: bacterial growth inhibition by OD600 (Antibacterial assay 1, MITC95)
# Assay type: cell-based, A. baumannii
# Settings: Acinetobacter baumannii, 20 h, lowest concentration giving >95% growth inhibition, CAMHB, 18-22 h
# Method: The concentrations of compounds required to inhibit the growth of various strains of bacteria were determined in an assay that assessed bacterial growth by measuring optical density at 600 nm (OD600). Test articles were dissolved in 100% DMSO and serially diluted two-fold from their maximal concentration in 100% DMSO. Forty-nine μl of bacterial inoculum (at approx. 2×10^5 cfu/mL in CAMHB) were put into wells of an assay plate. One μl of compound or DMSO was transferred from the source plate to the assay plate. The completed assay plates were then incubated at 35+2degC for 18-22 h. Bacterial growth was measured by reading OD600 on a spectrophotometer. Data analysis calculates the lowest concentration of compound which results in >95% growth inhibition (minimum inhibitory threshold concentration 95%, MITC95).
row,MIC [µM],Structure (SMILES)
1,0.0245,O=C(O)c1cc(OC2CN(Cc3ccc(NS(=O)(=O)c4ccc(-c5ccccc5)s4)c(C(=O)O)c3)C2)ccc1NS(=O)(=O)CCc1ccc(F)cc1 [Compound 86]
2,0.391,O=C(O)c1cc(CNC2CC(CNc3ccc(NS(=O)(=O)c4cnn(-c5ccc(F)cc5)c4)c(C(=O)O)c3)C2)ccc1NS(=O)(=O)CCc1ccc(Cl)cc1 (centres unmarked) [Compound 27]
3,0.0692,"O=C(O)c1cc(COC2CN(Cc3ccc(NS(=O)(=O)c4cnn(-c5ccc(Cl)cc5)c4)c(C(=O)O)c3)C2)ccc1NS(=O)(=O)c1cnn(-c2ccc(Cl)cc2)c1 [Compound 37, 5-(((1-(3-carboxy-4-(1-(4-chlorophenyl)-1H-pyrazole-4-sulfonamido)benzyl)azetidin-3-yl)oxy)methyl)-2-(1-(4-chlorophenyl)-1H-pyrazole-4-sulfonamido)benzoic acid]"
4,0.277,"O=C(O)Cc1cc(CN2CC(Oc3ccc(NS(=O)(=O)c4cnn(-c5ccc(Cl)cc5)c4)c(CC(=O)O)c3)C2)ccc1NS(=O)(=O)c1cnn(-c2ccc(Cl)cc2)c1 [Compound 1, 2-(5-((1-(3-(carboxymethyl)-4-(1-(4-chlorophenyl)-1H-pyrazole-4-sulfonamido)benzyl)azetidin-3-yl)oxy)-2-(1-(4-chlorophenyl)-1H-pyrazole-4-sulfonamido)phenyl) acetic acid]"
5,0.0489,O=C(O)c1cc(NCC2CC(NCc3ccc(NS(=O)(=O)c4cnc(-c5ccc(Cl)cc5)s4)c(C(=O)O)c3)C2)ccc1NS(=O)(=O)c1cnn(-c2ccc(F)cc2)c1 (centres unmarked) [Compound 26]
6,< 0.0488,O=C(NCc1ccccc1)C(=O)Nc1ccc(OC2CN(Cc3ccc(NS(=O)(=O)c4ccc(-c5ccc(Cl)cc5)cc4)c(C(=O)O)c3)C2)cc1C(=O)O [Compound 62]
7,0.0245,O=C(O)c1cc(CNC2CC(CNc3ccc(NS(=O)(=O)c4cnn(-c5ccc(Cl)cc5)c4)c(C(=O)O)c3)C2)ccc1NS(=O)(=O)c1cnn(-c2ccc(Cl)cc2)c1 (centres unmarked) [Compound 32]
8,0.155,"O=C(O)c1cc(CNC2CC(CNc3ccc(NS(=O)(=O)c4cnn(-c5ccc(F)cc5)c4)c(C(=O)O)c3)C2)ccc1NS(=O)(=O)c1cnn(-c2ccc(F)cc2)c1 (stereo not drawn) [Compound 25, cis-5-(((3-((3-carboxy-4-((1-(4-fluorophenyl)-1H-pyrazole)-4-sulfonamido)benzyl)amino)cyclobutyl)methyl)amino)-2-((1-(4-fluorophenyl)-1H-pyrazole)-4-sulfonamido)benzoic acid]"
9,0.0489,O=C(O)c1cc(CN2CC(Oc3ccc(NS(=O)(=O)c4ccc(-c5ccc(F)cc5)cc4)c(C(=O)O)c3)C2)ccc1NS(=O)(=O)c1cnn(-c2ccc(F)cc2)c1 [Compound 100]
10,0.0692,"O=C(O)Cc1cc(CN2CC(Oc3ccc(NS(=O)(=O)c4cnn(-c5ccc(Cl)cc5)c4)c(C(=O)O)c3)C2)ccc1NS(=O)(=O)c1cnn(-c2ccc(Cl)cc2)c1 [Compound 2, 5-((1-(3-(carboxymethyl)-4-((1-(4-chlorophenyl)-1H-pyrazole)-4-sulfonamido)-benzyl)azetidin-3-yl)oxy)-2-((1-(4-chlorophenyl)-1H-pyrazole)-4-sulfonamido)benzoic acid]"
11,0.0245,"O=C(O)c1cc(CN2CC(Oc3ccc(NS(=O)(=O)c4ccc(-c5ccc(F)cc5)cc4)c(C(=O)O)c3)C2)ccc1NS(=O)(=O)CCc1ccc(Cl)cc1 [Compound 99, 5-((1-(3-carboxy-4-((2-(4-chlorophenyl)ethyl)sulfonamido)benzyl)azetidin-3-yl)oxy)-2-((4′-fluoro-[1, l′-biphenyl])-4-sulfonamido)benzoic acid]"
12,0.246,"O=C(O)c1cc(OC2CN(Cc3ccc(NS(=O)(=O)c4cnn(-c5ccc(F)cc5)c4)c(-c4nn[nH]n4)c3)C2)ccc1NS(=O)(=O)c1cnn(-c2ccc(F)cc2)c1 [Compound 114, 2-((1-(4-fluorophenyl)-1H-pyrazole)-4-sulfonamido)-5-((1-(4-((1-(4-fluorophenyl)-1H-pyrazole)-4-sulfonamido)-3-(2H-tetrazol-5-yl)benzyl)azetidin-3-yl)oxy)benzoic acid]"
13,0.0489,O=C(O)c1cc(CN2CC(Oc3ccc(NS(=O)(=O)c4cnn(-c5ccc(F)cc5)c4)c(C(=O)O)c3)C2)ccc1NS(=O)(=O)CCCCCCc1ccc(Cl)cc1 [Compound 40]
14,0.0489,O=C(O)c1cc(CN2CC(Oc3ccc(NS(=O)(=O)c4cnn(-c5ccc(F)cc5)c4)c(C(=O)O)c3)C2)ccc1NS(=O)(=O)CCCc1ccc(Cl)cc1 [Compound 43]
15,0.277,O=C(O)c1cc(CNC2CC(CNc3ccc(NS(=O)(=O)c4cnn(-c5ccc(F)cc5)c4)c(C(=O)O)c3)C2)ccc1NS(=O)(=O)c1ccc(-c2ccc(Cl)cc2)cc1 (centres unmarked) [Compound 30]
16,0.31,O=C(CCCCC(c1ccccc1)c1ccccc1)Nc1ccc(OC2CN(Cc3ccc(NS(=O)(=O)c4cnn(-c5ccc(Cl)cc5)c4)c(C(=O)O)c3)C2)cc1C(=O)O [Compound 74]
17,0.0978,O=C(CCCc1ccccc1)Nc1ccc(OC2CN(Cc3ccc(NS(=O)(=O)c4cnn(-c5ccc(Cl)cc5)c4)c(C(=O)O)c3)C2)cc1C(=O)O [Compound 72]

row,MIC [µM],Structure (SMILES)
1,0.0245,O=C(O)c1cc(OC[C@H]2CC[C@@H](COc3ccc(NS(=O)(=O)c4cnn(-c5ccc(F)cc5)n4)c(C(=O)O)c3)O2)ccc1NS(=O)(=O)c1cnn(-c2ccc(F)cc2)n1 [Compound 20]
2,0.0489,O=C(O)c1cc(NCC2CC(NCc3ccc(NS(=O)(=O)N4CCOC(c5ccc(F)cc5)C4)c(C(=O)O)c3)C2)ccc1NS(=O)(=O)c1cnn(-c2ccc(F)cc2)c1 (centres unmarked) [Compound 36]
3,0.0173,O=C(O)c1cc(OC2CN(Cc3ccc(NS(=O)(=O)c4cnc(-c5ccc(Cl)cc5)s4)c(C(=O)O)c3)C2)ccc1NS(=O)(=O)CCc1ccc(F)cc1 [Compound 85]
4,0.0245,O=C(CCCc1ccc(Cl)cc1)Nc1ccc(OC2CN(Cc3ccc(NS(=O)(=O)c4cnn(-c5ccc(Cl)cc5)c4)c(C(=O)O)c3)C2)cc1C(=O)O [Compound 69]
5,0.0122,"O=C(O)c1cc(CN2CC(Oc3ccc(NS(=O)(=O)N4CC(Oc5ccc(F)cc5)C4)c(C(=O)O)c3)C2)ccc1NS(=O)(=O)N1CC(Oc2ccc(F)cc2)C1 [Compound 80, 5-((1-(3-carboxy-4-((3-(4-fluorophenoxy)azetidine)-1-sulfonamido)benzyl)azetidin-3-yl)oxy)-2-((3-(4-fluorophenoxy)azetidine)-1-sulfonamido)benzoic acid]"
6,0.0245,O=C(O)c1cc(CN2CC(Oc3ccc(NS(=O)(=O)c4ccc(-c5ccc(Cl)cc5)cc4)c(C(=O)O)c3)C2)ccc1NS(=O)(=O)c1ccc(OC(F)F)cc1 [Compound 103]
7,0.0122,O=C(O)c1cc(COC2CC(OCc3ccc(NS(=O)(=O)c4ccc(-c5ccc(Cl)cc5)cc4)c(C(=O)O)c3)C2)ccc1NS(=O)(=O)CCc1ccc(F)cc1 (centres unmarked) [Compound 18]
8,1.56,O=C(O)c1cc(CN[C@H]2C[C@@H](NCc3ccc(NS(=O)(=O)c4cnn(-c5ccc(F)cc5)c4)c(C(=O)O)c3)C2)ccc1NS(=O)(=O)c1cnn(-c2ccc(F)cc2)c1 [Compound 49]
9,0.0489,O=C(O)c1cc(OC[C@H]2CC[C@@H](COc3ccc(NS(=O)(=O)c4ccc(-c5ccc(F)cc5)cc4)c(C(=O)O)c3)O2)ccc1NS(=O)(=O)c1ccc(-c2ccc(F)cc2)cc1 [Compound 22]
10,0.0122,O=C(O)c1cc(OC[C@H]2C[C@@H](NCc3ccc(NS(=O)(=O)N4CC(Oc5ccc(F)cc5)C4)c(C(=O)O)c3)C2)ccc1NS(=O)(=O)c1cnc(-c2ccc(Cl)cc2)s1 [Compound 96]
11,0.0245,O=C(Cc1cccc(Cl)c1)Nc1ccc(OC2CN(Cc3ccc(NS(=O)(=O)c4cc(-c5ccc(F)cc5)ns4)c(C(=O)O)c3)C2)cc1C(=O)O [Compound 67]
12,0.0245,O=C(O)c1cc(CN2CC(Oc3ccc(NS(=O)(=O)c4ccc(-c5ccc(Cl)cc5)cc4)c(C(=O)O)c3)C2)ccc1NS(=O)(=O)c1ccc(Oc2ccccc2)nc1 [Compound 105]
13,0.0489,O=C(O)c1cc(OC[C@H]2CC[C@@H](COc3ccc(NS(=O)(=O)CCc4ccc(Cl)cc4)c(C(=O)O)c3)O2)ccc1NS(=O)(=O)CCc1ccc(Cl)cc1 [Compound 21]
14,0.391,O=C(O)c1cc(COC2CN(Cc3ccc(NS(=O)(=O)c4cnn(-c5ccc(F)cc5)c4)c(C(=O)O)c3)C2)ccc1NS(=O)(=O)c1cnn(-c2ccc(F)cc2)c1 [Compound 38]
15,0.553,"CS(=O)(=O)NC(=O)c1cc(OC2CN(Cc3ccc(NS(=O)(=O)c4cnn(-c5ccc(F)cc5)c4)c(C(=O)O)c3)C2)ccc1NS(=O)(=O)c1cnn(-c2ccc(F)cc2)c1 [Compound 52, 2-((1-(4-fluorophenyl)-1H-pyrazole)-4-sulfonamido)-5-((3-(4-((1-(4-fluorophenyl)-1H-pyrazole)-4-sulfonamido)-3-((methylsulfonyl)carbamoyl)phenoxy)azetidin-1-yl)methyl)benzoic acid]"
16,0.391,O=C(O)c1cc(CNC23CCC(NCc4ccc(NS(=O)(=O)c5cnn(-c6ccc(Cl)cc6)c5)c(C(=O)O)c4)(C2)C3)ccc1NS(=O)(=O)c1cnn(-c2ccc(Cl)cc2)c1 [Compound 50]

row,Structure (SMILES),MIC [µM]
1,"O=C(O)c1cc(COC2CC(OCc3ccc(NS(=O)(=O)c4cnn(-c5ccc(F)cc5)c4)c(C(=O)O)c3)C2)ccc1NS(=O)(=O)c1cnn(-c2ccc(F)cc2)c1 (stereo not drawn) [Compound 12, trans-5-((3-((3-carboxy-4-((1-(4-fluorophenyl)-1H-pyrazole)-4-sulfonamido)benzyl)oxy)-cyclobutoxy)methyl)-2-((1-(4-fluorophenyl)-1H-pyrazole)-4-sulfonamido)benzoic acid]",0.138

# Same assay, conditions: lowest concentration giving >95% growth inhibition, CAMHB, 18-22 h
row,MIC [µM],Structure (SMILES)
1,0.196,O=C(O)c1cc(COC2CC(OCc3ccc(NS(=O)(=O)c4cnn(-c5ccc(F)cc5)c4)c(C(=O)O)c3)C2)ccc1NS(=O)(=O)c1cnn(-c2ccc(F)cc2)c1 (centres unmarked) [Compound 13]
